In a melting point compilation (Tetko et al.; mined from patent text by program, amines drawn as free bases though some values may be those of a salt):

Question: Which melting point does the source give for `CS(=O)(=O)NN(c1ccc([N+](=O)[O-])cc1N)S(=O)(=O)c1cccc(S(=O)(=O)F)c1` here?
Answer: Its melting point is 204 to 209 °C.

Question: With `CC(C)n1c(C(=O)Cl)c(-c2ccc(F)cc2)c2ccccc2c1=O` as the compound, how does the melting point read?
Answer: Its melting point is 132 to 134 °C.

Question: With `CC(=O)Nc1ccc(NCCOS(C)(=O)=O)c([N+](=O)[O-])c1` as the compound, how does the melting point read?
Answer: The melting point was 166 °C.

Question: For `COC(=O)C(F)(F)C1(C(F)(F)C(=O)OC)OCCO1`, which melting point is on record?
Answer: Its melting point is 66.5 to 67.5 °C.

Question: For `Nc1nc(S(=O)(=O)Cl)nn1C(=O)Oc1ccccc1`, which melting point is on record?
Answer: Its melting point is 164 °C.

Question: Which melting point does the source give for `CCCCCCCCN(C)C(=O)CC(=O)N(C)CCCCCCCC` here?
Answer: Its melting point is 41 °C.

Question: With `COCc1cn(-c2cccc(C(F)(F)F)c2)nc(C(C)=O)c1=O` as the compound, how does the melting point read?
Answer: Its melting point is 141 to 143 °C.

Question: Which melting point does the source give for `O=c1[nH]c(=O)n(CCCCN2CC=C(c3ccc(Cl)cc3)CC2)c2ccccc12` here?
Answer: Its melting point is 162 to 166 °C.

Question: For `O=C1NC(=O)C(S(=O)(=O)c2ccc3ccccc3n2)S1` (centres undefined), which melting point is on record?
Answer: Its melting point is 168 to 169 °C.

Question: For `c1ccc2c(NCCc3c[nH]cn3)nsc2c1`, which melting point is on record?
Answer: Its melting point is 222 to 224 °C.

Question: With `CCOC(=O)c1[nH]c(=O)n(C)c(=O)c1OCc1ccccc1` as the compound, how does the melting point read?
Answer: Its melting point is 184 to 187 °C.

Question: For `CC(C)(C)C(=O)Oc1ccc(CCNC(=O)c2cccnc2)cc1OC(=O)C(C)(C)C`, which melting point is on record?
Answer: Its melting point is 112 to 114 °C.

Question: With `CCn1c(CC(=O)O)ccc1C(=O)c1ccc(Cl)cc1` as the compound, how does the melting point read?
Answer: The melting point was 149 to 153 °C.

Question: With `CN1C(=O)CC[C@]2(C)c3ccc(-c4ccc(F)cc4C(F)(F)F)cc3CC[C@@H]12` as the compound, how does the melting point read?
Answer: Its melting point is 70 °C.

Question: With `O=C1NCCn2c1nc1ccccc12` as the compound, how does the melting point read?
Answer: The melting point was > 250 °C.

Question: With `COC(=O)c1ccc(/C=C/Cc2cc3c(cc2C)CCC(C)(C)CC3)cc1` as the compound, how does the melting point read?
Answer: Its melting point is 59 to 60 °C.

Question: For `CC(=Nc1ccc2c(c1)C(=O)c1ccc(N=C(C)N3CCCCC3)cc1C2=O)N1CCCCC1`, which melting point is on record?
Answer: Its melting point is 233 to 235 °C.

Question: Which melting point does the source give for `CCC1(CO)COC2(CC(c3ccccc3)SC(c3ccccc3)C2)OC1` (centres undefined) here?
Answer: The melting point was 128 °C.

Question: With `CCCC1=C(C(=O)OCC)C(c2cccc3ccsc23)c2c[nH]nc2N1` (centres undefined) as the compound, how does the melting point read?
Answer: Its melting point is 166 °C.

Question: With `CC(C)(C)OC(=O)Nc1cccc(C2(O)COC2)c1` as the compound, how does the melting point read?
Answer: Its melting point is 121 to 123 °C.

Question: With `Cc1nc2ccccc2c(=O)n1-c1ccccc1C#N` as the compound, how does the melting point read?
Answer: The melting point was 165 to 166 °C.

Question: For `Cc1nc(-c2ccccc2)cc(-c2cccc(C#N)c2)c1C(=O)NCCN1CCOCC1`, which melting point is on record?
Answer: Its melting point is 166 to 168 °C.

Question: For `COCOc1cc(F)ccc1-c1cc(-c2cccc(N)c2)c(C#N)c(NC(=O)c2ccco2)n1`, which melting point is on record?
Answer: Its melting point is 204 to 206 °C.

Question: Which melting point does the source give for `O[C@@H]1CCN(c2ccc3nnn(Cc4ccc5ncccc5c4)c3n2)C1` here?
Answer: Its melting point is 167 to 169 °C.

Question: For `CCOC(=O)c1c(N2CCCC2)c2cnc(-c3ccccc3)nc2n(CC)c1=O`, which melting point is on record?
Answer: Its melting point is 149 to 153 °C.

Question: Which melting point does the source give for `O=C(Nc1ccccc1)O[C@H]1CSC(c2ccccc2)=N[C@@H]1c1ccccc1` (racemic) here?
Answer: Its melting point is 159 °C.

Question: Which melting point does the source give for `O=c1[nH]nc2c(Br)cccn12` here?
Answer: The melting point was 297 to 299 °C.

Question: Which melting point does the source give for `CN1CCN(C(=O)c2ccc3n2Cc2ccccc2N(C(=O)c2ccc(C4CCCCC4)cc2)C3)CC1` here?
Answer: Its melting point is 134 to 136 °C.

Question: Which melting point does the source give for `COC(=O)COc1ccc(N=C=O)cc1` here?
Answer: Its melting point is 50 to 53 °C.

Question: For `O=C(c1cccs1)c1cnn2c(-c3ccc(F)c(N(C(=O)c4ccccc4Cl)C(=O)c4ccccc4Cl)c3)ccnc12`, which melting point is on record?
Answer: Its melting point is 150 to 151 °C.

Question: For `CC1(C)[C@@H](CS(=O)(=O)c2ccc(S(C)(=O)=O)cc2)CC[C@@]1(C)NCC(=O)N1C[C@@H](F)C[C@H]1C#N`, which melting point is on record?
Answer: The melting point was 163 to 166 °C.

Question: Which melting point does the source give for `Fc1cccc(F)c1C1=NC(c2cc3sc(-c4ccc(OC(F)(F)F)cc4)cc3s2)CC1` (centres undefined) here?
Answer: Its melting point is 135 °C.

Question: Which melting point does the source give for `O=C(c1ccc(Cl)cc1)c1ccc(NCC2CO2)cc1` (centres undefined) here?
Answer: The melting point was 128 to 129 °C.

Question: With `CN(Cc1cc(C(F)(F)F)cc(C(F)(F)F)c1)C(=O)c1nc(N)ncc1-c1ccccc1` as the compound, how does the melting point read?
Answer: The melting point was 182 °C.

Question: For `CCCCCCCC(=O)NCc1ccccc1`, which melting point is on record?
Answer: Its melting point is 76 to 78 °C.

Question: Which melting point does the source give for `CC(O)c1ncnc(N2CCN(S(=O)(=O)N(C)C)CC2)n1` (centres undefined) here?
Answer: Its melting point is 124 to 125 °C.

Question: Which melting point does the source give for `O=C1c2cccc([N+](=O)[O-])c2C(=O)N1c1cccc2ccc(O)cc12` here?
Answer: The melting point was 136 to 137 °C.

Question: For `OC1CC(c2ccc(Oc3ccc(-c4ccc(Cl)cc4)cc3)cc2)Cc2ccccc21` (centres undefined), which melting point is on record?
Answer: The melting point was 156 °C.

Question: With `NS(=O)(=O)c1ccc(C(=O)Nc2cn3cc(Cl)ccc3n2)cc1` as the compound, how does the melting point read?
Answer: The melting point was > 320 °C.
